According to patent US20240158446A1, “CYCLIC COMPOUND HAVING SELECTIVE INHIBITORY ACTION ON KRAS OVER HRAS AND NRAS” (CHUGAI SEIYAKU KABUSHIKI KAISHA, priority 2021, published 2024):

Key:
[1] = target: GDP-bound NRAS wild-type protein (Homo sapiens, UniProt P01111); test: Binding to NRAS by surface plasmon resonance (SPR), Single Cycle Kinetics; conditions: for NRAS/KRAS (ratio of KD value for NRAS to KD value for KRAS) / NRAS/KRAS (ratio of KD value with respect to NRAS to KD value with respect to KRAS): SPR, GDP-bound NRAS wild-type protein vs GDP-bound KRAS wild-type protein; for NRAS/KRAS (ratio of KD value with respect to GDP-bound NRAS wild-type protein to KD value with respect to KRAS): SPR KD ratio NRAS/KRAS, class symbols
[2] = target: GDP-bound HRAS wild-type protein (Homo sapiens, UniProt P01112); test: Binding to HRAS by surface plasmon resonance (SPR), Single Cycle Kinetics; conditions: for HRAS/KRAS (ratio of KD value for HRAS to KD value for KRAS) / HRAS/KRAS (ratio of KD value with respect to HRAS to KD value with respect to KRAS): SPR, GDP-bound HRAS wild-type protein vs GDP-bound KRAS wild-type protein; for HRAS/KRAS (ratio of KD value with respect to GDP-bound HRAS wild-type protein to KD value with respect to KRAS): SPR KD ratio HRAS/KRAS, class symbols
Sequence of GDP-bound HRAS wild-type protein (P01112 whole entry): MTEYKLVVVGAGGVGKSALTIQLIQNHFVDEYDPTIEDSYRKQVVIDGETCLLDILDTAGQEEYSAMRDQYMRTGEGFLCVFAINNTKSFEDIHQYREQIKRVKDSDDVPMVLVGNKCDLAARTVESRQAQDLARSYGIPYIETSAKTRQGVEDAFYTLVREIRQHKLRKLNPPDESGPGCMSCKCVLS

Sequence of GDP-bound NRAS wild-type protein (P01111 whole entry): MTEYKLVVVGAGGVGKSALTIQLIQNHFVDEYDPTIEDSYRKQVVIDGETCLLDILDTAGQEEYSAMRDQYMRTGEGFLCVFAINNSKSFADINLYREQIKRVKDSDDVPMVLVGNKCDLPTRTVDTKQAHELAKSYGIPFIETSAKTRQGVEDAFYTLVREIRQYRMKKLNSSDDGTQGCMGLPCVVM

SMILES: CCO[C@@H]1C[C@H]2C(=O)NC3(CCC3)C(=O)N(C)[C@@H](C3CCCC3)C(=O)N(C)[C@H](C(=O)N(C)CC)CC(=O)N(C)[C@H]3CCCCCc4ccc(cc4)C[C@@H](C(=O)N(C)CC(=O)N[C@@H](CCc4cc(F)c(C(F)(F)F)c(F)c4)C(=O)N2C1)N1CC/C=C\C[C@@H](C1=O)N(C)C(=O)CN(C)C(=O)[C@H]([C@@H](C)CC)NC3=O (stereo in doubt) [PP2117]
- NRAS/KRAS (ratio of KD value for NRAS to KD value for KRAS) [1]: A (a compound having 10 or more and less than 20 is denoted as A)
- HRAS/KRAS (ratio of KD value for HRAS to KD value for KRAS) [2]: A (a compound having 10 or more and less than 20 is denoted as A)

SMILES: CCC[C@H]1C(=O)N[C@@H]([C@@H](C)CC)C(=O)N(C)CC(=O)N(C)[C@H]2C/C=C\CCN(C2=O)[C@@H](Cc2ccc(C)cc2)C(=O)N(C)CC(=O)N[C@@H](CCc2ccc3sc(C)c(C)c3c2)C(=O)N2C[C@H](OCC)C[C@H]2C(=O)NC2(CC(C)(C)C2)C(=O)N(C)[C@@H](C2CCCC2)C(=O)N(C)[C@H](C(=O)N(C)C)CC(=O)N1C [PP2891]
- NRAS/KRAS (ratio of KD value with respect to GDP-bound NRAS wild-type protein to KD value with respect to KRAS) [1]: A (a compound having 10 or more and less than 20 is denoted as A)
- HRAS/KRAS (ratio of KD value with respect to GDP-bound HRAS wild-type protein to KD value with respect to KRAS) [2]: B (a compound having 3 or more and less than 10 is denoted as B)

SMILES: CCOC[C@H]1C(=O)N[C@@H]([C@@H](C)CC)C(=O)N(C2CC2)CC(=O)N(C)[C@H]2C/C=C\CCN(C2=O)[C@@H](CC2CCCCC2)C(=O)N(C)CC(=O)N[C@@H](CCc2ccc(C(F)(F)F)c(OC)c2)C(=O)N2C[C@H](OCC)C[C@H]2C(=O)N(C)C2(CCC2)C(=O)N(C)[C@@H](C2CCCC2)C(=O)N(C)[C@H](C(=O)N(C)C)CC(=O)N1C [PP2342]
- NRAS/KRAS (ratio of KD value for NRAS to KD value for KRAS) [1]: A (a compound having 10 or more and less than 20 is denoted as A)
- HRAS/KRAS (ratio of KD value for HRAS to KD value for KRAS) [2]: A (a compound having 10 or more and less than 20 is denoted as A)

SMILES: CCO[C@@H]1C[C@H]2C(=O)NC3(CCC3)C(=O)N(C)[C@@H](C3CCCC3)C(=O)N(C)[C@H](C(=O)N3CCOCC3)CC(=O)N(C)[C@@H](CC(C)(C)C)C(=O)N[C@@H]([C@@H](C)CC)C(=O)N(C)CC(=O)N(C)[C@H]3CCCCCN(C3=O)[C@@H](Cc3ccc(C(F)(F)F)cc3)C(=O)N(C)CC(=O)N[C@@H](CCc3cc(F)c(C(F)(F)F)c(F)c3)C(=O)N2C1 [PP0684]
- NRAS/KRAS (ratio of KD value with respect to NRAS to KD value with respect to KRAS) [1]: B (a compound having 3 or more and less than 10 is denoted as B)
- HRAS/KRAS (ratio of KD value with respect to HRAS to KD value with respect to KRAS) [2]: B (a compound having 3 or more and less than 10 is denoted as B)

SMILES: CCO[C@@H]1C[C@H]2C(=O)NC3(CCC3)C(=O)N(C)[C@@H](C3CCCC3)C(=O)N(C)[C@H](C)CC(=O)N(C)[C@@H](CC3CC3)C(=O)N[C@@H]([C@@H](C)CC)C(=O)N(C)CC(=O)N(C)[C@H]3C/C=C\CCN(C3=O)[C@@H](Cc3ccc(F)cc3C)C(=O)N(C)CC(=O)N[C@@H](CCc3cc(F)c(C(F)(F)F)c(F)c3)C(=O)N2C1 [PP1489]
- NRAS/KRAS (ratio of KD value for NRAS to KD value for KRAS) ([1]; KD ratio class): B (a compound having 3 or more and less than 10 is denoted as B)
- HRAS/KRAS (ratio of KD value for HRAS to KD value for KRAS) ([2]; KD ratio class): B (a compound having 3 or more and less than 10 is denoted as B)

SMILES: CCC[C@H]1C(=O)N[C@@H]([C@@H](C)CC)C(=O)N(C2CC2)CC(=O)N(C)[C@H]2C/C=C\CCN(C2=O)[C@@H](Cc2ccc(C)cc2)C(=O)N(C)CC(=O)N[C@@H](CCc2cc(C)c(C(F)F)c(Cl)c2)C(=O)N2C[C@H](OCC)C[C@H]2C(=O)NC2(CC(C)(C)C2)C(=O)N(C)[C@@H](C2CCCC2)C(=O)N(C)[C@H](C(=O)N(C)C)CC(=O)N1C [PP2875]
- NRAS/KRAS (ratio of KD value with respect to GDP-bound NRAS wild-type protein to KD value with respect to KRAS) [1]: A (a compound having 10 or more and less than 20 is denoted as A)
- HRAS/KRAS (ratio of KD value with respect to GDP-bound HRAS wild-type protein to KD value with respect to KRAS) [2]: A (a compound having 10 or more and less than 20 is denoted as A)

SMILES: CCO[C@@H]1C[C@H]2C(=O)NC3(CCC3)C(=O)N(C)[C@@H](C3CCCC3)C(=O)N(C)[C@H](C(=O)N(C)C)CC(=O)N(C)[C@@H](C)C(=O)N[C@@H]([C@H](C)CC)C(=O)N(C)CC(=O)N(C)[C@H]3CCCCCN(C3=O)[C@@H](Cc3ccc(C(F)(F)F)cc3)C(=O)N(C)CC(=O)N[C@@H](CCc3cc(F)c(C(F)(F)F)c(F)c3)C(=O)N2C1 [PP0729]
- NRAS/KRAS (ratio of KD value with respect to NRAS to KD value with respect to KRAS) [1]: B (a compound having 3 or more and less than 10 is denoted as B)
- HRAS/KRAS (ratio of KD value with respect to HRAS to KD value with respect to KRAS) [2]: B (a compound having 3 or more and less than 10 is denoted as B)

SMILES: CCO[C@@H]1C[C@H]2C(=O)NC3(CCC3)C(=O)N(C)[C@@H](C(CC)CC)C(=O)N(C)[C@H](C)CC(=O)N(C)[C@@H](CC3CC3)C(=O)N[C@@H]([C@@H](C)CC)C(=O)N(C)CC(=O)N(C)[C@H]3C/C=C\CCN(C3=O)[C@@H](Cc3ccc(F)cc3C)C(=O)N(C)CC(=O)N[C@@H](CCc3cc(F)c(C(F)(F)F)c(F)c3)C(=O)N2C1 [PP1520]
- NRAS/KRAS (ratio of KD value for NRAS to KD value for KRAS) ([1]; KD ratio class): A (a compound having 10 or more and less than 20 is denoted as A)
- HRAS/KRAS (ratio of KD value for HRAS to KD value for KRAS) ([2]; KD ratio class): A (a compound having 10 or more and less than 20 is denoted as A)

SMILES: CCCOC[C@H]1C(=O)N[C@@H]([C@@H](C)CC)C(=O)N(C)CC(=O)N(C)[C@H]2C/C=C\CCN(C2=O)[C@@H](Cc2ccc(C)cc2)C(=O)N(C)CC(=O)N[C@@H](CCc2cc(F)c(C(F)(F)F)c(F)c2)C(=O)N2C[C@H](CC)C[C@H]2C(=O)NC2(CCCC2)C(=O)N(C)[C@@H](C2CCCC2)C(=O)N(C)[C@H](C(=O)N(C)C)CC(=O)N1C [PP2218]
- NRAS/KRAS (ratio of KD value for NRAS to KD value for KRAS) [1]: A (a compound having 10 or more and less than 20 is denoted as A)
- HRAS/KRAS (ratio of KD value for HRAS to KD value for KRAS) [2]: A (a compound having 10 or more and less than 20 is denoted as A)

SMILES: CCOC[C@H]1C(=O)N[C@@H]([C@@H](C)CC)C(=O)N(C2CC2)CC(=O)N(C)[C@H]2C/C=C\CCN(C2=O)[C@@H](Cc2ccc(C(F)(F)F)cc2)C(=O)N(C)CC(=O)N[C@@H](CCc2ccc(C(F)(F)F)c(OC)c2)C(=O)N2C[C@H](OCC)C[C@H]2C(=O)N(C)C2(CCC2)C(=O)N(C)[C@@H](C(CC)CC)C(=O)N(C)[C@H](C(=O)N(C)C)CC(=O)N1C [PP2315]
- NRAS/KRAS (ratio of KD value for NRAS to KD value for KRAS) [1]: A (a compound having 10 or more and less than 20 is denoted as A)
- HRAS/KRAS (ratio of KD value for HRAS to KD value for KRAS) [2]: A (a compound having 10 or more and less than 20 is denoted as A)

SMILES: CC[C@H](C)[C@@H]1NC(=O)[C@H](COC)N(C)C(=O)C[C@@H](C(=O)N2CCOCC2)N(C)C(=O)[C@H](C2CCCC2)N(C)C(=O)C2(CCC2)NC(=O)[C@@H]2CC(F)(F)CN2C(=O)[C@H](CCc2cc(F)c(C(F)(F)F)c(F)c2)NC(=O)CN(C)C(=O)[C@H](Cc2ccc(C(F)(F)F)cc2)N2CCCCC[C@@H](C2=O)N(C)C(=O)CN(C)C1=O [PP0834]
- NRAS/KRAS (ratio of KD value for NRAS to KD value for KRAS) [1]: A (a compound having 10 or more and less than 20 is denoted as A)
- HRAS/KRAS (ratio of KD value for HRAS to KD value for KRAS) [2]: B (a compound having 3 or more and less than 10 is denoted as B)

SMILES: CC[C@H](C)[C@@H]1NC(=O)[C@H](CC(C)C)N(C)C(=O)C[C@@H](C(=O)N2CCOCC2)N(C)C(=O)[C@H](C2CCCC2)N(C)C(=O)C2(CCC2)NC(=O)[C@@H]2CC(F)(F)CN2C(=O)[C@H](CCc2ccc(C(F)(F)F)c(Cl)c2)NC(=O)CN(C)C(=O)[C@H](Cc2ccc(F)cc2)N2CCCCC[C@@H](C2=O)N(C)C(=O)CN(C)C1=O [PP0969]
- NRAS/KRAS (ratio of KD value for NRAS to KD value for KRAS) [1]: B (a compound having 3 or more and less than 10 is denoted as B)
- HRAS/KRAS (ratio of KD value for HRAS to KD value for KRAS) [2]: B (a compound having 3 or more and less than 10 is denoted as B)

SMILES: CC[C@H](C)[C@@H]1NC(=O)[C@H](CC(C)C)N(C)C(=O)C[C@@H](C(=O)N2CCOCC2)N(C)C(=O)[C@H](C2CCC2)N(C)C(=O)C2(CCCC2)NC(=O)[C@@H]2CCCN2C(=O)[C@H](CCc2cc(F)c(C(F)(F)F)c(F)c2)NC(=O)CN(C)C(=O)[C@H](Cc2ccc(C(F)(F)F)cc2)N2CCCCC[C@@H](C2=O)N(C)C(=O)CN(C)C1=O [PP0504]
- NRAS/KRAS (ratio of KD value with respect to NRAS to KD value with respect to KRAS) [1]: B (a compound having 3 or more and less than 10 is denoted as B)
- HRAS/KRAS (ratio of KD value with respect to HRAS to KD value with respect to KRAS) [2]: B (a compound having 3 or more and less than 10 is denoted as B)

SMILES: CCOC[C@H]1C(=O)N[C@@H]([C@@H](C)CC)C(=O)N(C)CC(=O)N(C)[C@H]2C/C=C\CCN(C2=O)[C@@H](Cc2ccc(CC)cc2)C(=O)N(C)CC(=O)N[C@@H](CCc2ccc(C(F)(F)F)c(OC)c2)C(=O)N2C[C@@H](C)C[C@H]2C(=O)NC2(CC(C)(C)C2)C(=O)N(C)[C@@H](C2CCCC2)C(=O)N(C)[C@H](C(=O)N(C)CC)CC(=O)N1C (stereo in doubt) [PP2696]
- NRAS/KRAS (ratio of KD value with respect to GDP-bound NRAS wild-type protein to KD value with respect to KRAS) [1]: A (a compound having 10 or more and less than 20 is denoted as A)
- HRAS/KRAS (ratio of KD value with respect to GDP-bound HRAS wild-type protein to KD value with respect to KRAS) [2]: B (a compound having 3 or more and less than 10 is denoted as B)

SMILES: CCOC[C@H]1C(=O)N[C@@H]([C@@H](C)CC)C(=O)N(C)CC(=O)N(C)[C@H]2C/C=C\CCN(C2=O)[C@@H](Cc2ccc(C(C)(F)F)cc2)C(=O)N(C)CC(=O)N[C@@H](CCc2ccc(C(F)(F)F)c(OC)c2)C(=O)N2C[C@@H](C)C[C@H]2C(=O)NC2(CC(C)(C)C2)C(=O)N(C)[C@@H](C2CCCC2)C(=O)N(C)[C@H](C(=O)N(C)CC)CC(=O)N1C [PP2699]
- NRAS/KRAS (ratio of KD value with respect to GDP-bound NRAS wild-type protein to KD value with respect to KRAS) [1]: A (a compound having 10 or more and less than 20 is denoted as A)
- HRAS/KRAS (ratio of KD value with respect to GDP-bound HRAS wild-type protein to KD value with respect to KRAS) [2]: B (a compound having 3 or more and less than 10 is denoted as B)
